PubChem BioAssay AID1996
In brackets after ≈: the same amount, converted by molar mass.

Conditions: buffer; pH 7.4; 200.0 µM

| SMILES | solubility kinetic [µg/mL] |
| --- | --- |
| Cc1ccnc(NC(=O)c2cccc3ccccc23)c1 | 6.1 (≈ 23.3 µM) |
| Cc1ccc(-c2cc3ccccc3nc2N)cc1 | 4 (≈ 17.1 µM) |
| NC(=NC(=O)c1ccc(OCC(F)(F)F)nc1)c1ccccc1 | 6.6 (≈ 20.4 µM) |
| Cc1nnc(NC(=O)C2CCCC2)s1 | > 31.7 |
| O=C(O)c1ccc(Nc2cccc(F)c2)c([N+](=O)[O-])c1 | > 41.4 |
| COc1ccc(S(=O)(=O)Nc2noc3ccccc23)cc1OC | > 50.2 |
| CC(OC(=O)c1ccco1)C(=O)Nc1ncc(Cl)cc1Cl (centres undefined) | 49.2 (≈ 149 µM) |
| CCCN(CC1CC1)C(=S)NC(=O)C1CC1 | > 36.1 |
| CCC(=O)Nc1cc2c3c(c1)CCN3C(=O)CC2 | 35.3 (≈ 144 µM) |
| O=C(Cc1ccccc1)Nc1nccs1 | > 32.7 |
| Cc1cccc(NC(=O)CCc2ccccc2)c1 | 35 (≈ 146 µM) |
| COc1ccc(/C=C\c2nc(O)c([N+](=O)[O-])c(=O)[nH]2)cc1O | > 45.8 |
| O=C(c1cccc(C(F)(F)F)c1)N1CCc2c([nH]c3ccccc23)C1C(F)(F)F (centres undefined) | < 0.4 |
| C=CCN1CCN(C(=O)c2c(-c3ccccc3)noc2C)CC1 | > 46.7 |
| CCN(CC)CCCNc1nc(N)c([N+](=O)[O-])c(NCCO)n1 | > 49.1 |
| O=C(CSc1ncnc2sccc12)Nc1ccccc1F | 5.9 (≈ 18.5 µM) |
| O=C(COc1ccccc1F)NC12CC3CC(CC(C3)C1)C2 | 6.6 (≈ 21.8 µM) |
| Cn1c(N)c(C(=O)c2ccc(Cl)c(S(=O)(=O)N3CCCCCC3)c2)c(=O)n(C)c1=O | > 68.2 |
| Cn1c(/C(C#N)=C(\O)c2cccc(F)c2)nc2ccccc21 | 0.3 (≈ 1.02 µM) |
| COc1ccc2c([N+](=O)[O-])c(Cl)[nH]c2c1 | 32.3 (≈ 143 µM) |
| NC(=O)C1CCN(Cc2nc(-c3cccs3)no2)CC1 | > 43.9 |
| O=C(/C=C/c1ccco1)OCC(=O)c1cccc([N+](=O)[O-])c1 | 3.2 (≈ 10.6 µM) |
| CN(C1(C)CCS(=O)(=O)C1)S(=O)(=O)c1cccc([N+](=O)[O-])c1 (centres undefined) | > 52.3 |
| Cc1ccc(-c2cc(C(=O)NC3CCCCC3)no2)cc1 | < 0.3 |
| O=[N+]([O-])c1ccc(N2CCN(c3ccccc3Cl)CC2)cn1 | 2 (≈ 6.27 µM) |

| SMILES | solubility kinetic [µg/mL] |
| --- | --- |
| O=C(OCC(=O)N1CCc2ccccc21)c1ccccc1F | 1.7 (≈ 5.68 µM) |
| Nc1ccc(S(=O)(=O)NC2=NCCCCC2)cc1 | > 40.1 |
| COc1cc2c(cc1OC)C(c1ccc([N+](=O)[O-])cc1)NC(=O)C2 (centres undefined) | 45.6 (≈ 139 µM) |
| CCOC(=O)Cc1csc(NC(=O)c2cc(=O)c3ccccc3o2)n1 | 51.8 (≈ 145 µM) |
| Cc1ccc(-c2c(C(=O)O)c3ccccc3[nH]c2=O)cc1 | > 41.9 |
| CC(=O)c1cn(CCOc2ccc(F)cc2)c2ccccc12 | 10.8 (≈ 36.3 µM) |
| CCc1ccccc1NC(=S)N1CCN(c2cccc(OC)c2)CC1 | 2.2 (≈ 6.19 µM) |
| Cc1cc(/C=C2\NC(=S)NC2=O)c(C)n1-c1cccnc1 | 4.8 (≈ 16.1 µM) |
| O=C(COC(=O)/C=C/c1cccc(F)c1)NC1CCCC1 | 7.8 (≈ 26.8 µM) |
| NC(=O)c1ccsc1NC(=O)c1ccc([N+](=O)[O-])o1 | 20.5 (≈ 72.9 µM) |
| CSc1ccc(CNCC(O)c2ccccc2)cc1.Cl (centres undefined) | > 46.5 |
| CCOC(=O)N1CCN(C(=O)Nc2cccc3ccccc23)CC1 | > 49.1 |
| Clc1ccccc1-c1csc(Nc2cccnc2)n1 | 0.3 (≈ 1.04 µM) |
| CNC(=O)NC(=O)C(C)Oc1ccccc1F (centres undefined) | 34.9 (≈ 145 µM) |
| CSc1ncc(Cl)c(C(=O)Nc2ccccc2[N+](=O)[O-])n1 | < 0.2 |
| Cc1cccc2c1NC(=O)C2=Nc1ccc(Cl)cc1 | 4.7 (≈ 17.4 µM) |
| O=C(NC(=S)N1CCN(c2ccccc2)CC1)c1ccccc1 | 6.4 (≈ 19.7 µM) |
| Cc1onc(-c2ccccc2)c1NC(=O)N(CCC#N)Cc1cccs1 | 54.4 (≈ 148 µM) |
| CN(c1cccc(NC(=O)c2ccc(C(C)(C)C)cc2)c1)S(C)(=O)=O | < 0.4 |
| CCCCNC(=O)NCCN1CCOCC1 | 31.9 (≈ 139 µM) |
| O=C1[C@@H]2[C@H]3CC[C@H](C3)[C@@H]2C(=O)N1O | 27 (≈ 149 µM) |
| O=C(NCc1ccc(Cl)cc1)c1csc(-c2cccnc2)n1 | 37.9 (≈ 115 µM) |
| COc1ccc(CCC(=O)NCCc2ccc(Cl)cc2)cc1 | 3.7 (≈ 11.6 µM) |
| CCOCCCNC(=O)N[C@H](C(=O)OC)C(C)CC (some centres undefined) | > 41.2 |
| Cc1cccc(S(=O)(=O)Nc2cc(Cl)ccc2N2CCOCC2)c1 | 3.6 (≈ 9.81 µM) |

Other lines, results leading:

| solubility kinetic [µg/mL] | SMILES |
| --- | --- |
| 10.3 (≈ 30.4 µM) | Cc1ccc(C(=O)N2CCC(Cc3ccccc3)CC2)cc1[N+](=O)[O-] |
| > 42.2 | CCOc1ccccc1CNS(=O)(=O)c1cnc[nH]1 |
| 8.1 (≈ 24.4 µM) | CC(C)n1c(Oc2ccc(F)cc2)nc2c1c(=O)n(C)c(=O)n2C |
| > 37.4 | CC(C)(C)C(=O)NC(CC(=O)O)c1ccccc1 (centres undefined) |
| > 40 | CCN(CC)C(=S)Nc1ccc(C(=O)OC)cc1 |
| 28.2 (≈ 125 µM) | C/C(=C\C(=O)Nc1cscc1C)C(=O)O |
| > 70.6 | N#CCCN(C(=O)CN1CCN(S(=O)(=O)c2ccc(Cl)s2)CC1)c1ccc(F)cc1 |
| 12.7 (≈ 37.9 µM) | CCCS(=O)(=O)c1cnc(C2COc3ccccc3O2)nc1N (centres undefined) |
| 47.9 (≈ 145 µM) | COc1ccc(S(=O)(=O)NCCN2CCNC2=O)cc1OC |
| < 0.7 | CCOc1ccc(N=C(C)C2=C(O)c3ccccc3C2=O)cc1 |
| 0.7 (≈ 1.94 µM) | O=C(Nc1ccc(F)cc1)c1cccc(N2C(=O)c3ccccc3C2=O)c1 |
| 39.6 (≈ 98.4 µM) | COc1cc(OC)cc(C(=O)NCC(C)NC(=O)c2cc(OC)cc(OC)c2)c1 (centres undefined) |
| < 0.4 | O=C(/C=C\c1ccccc1)Nc1ccc(NC(=O)c2ccco2)cc1 |
| 32.1 (≈ 121 µM) | COc1ccc2cc(C3OCCO3)c(Cl)nc2c1 |
| 5.6 (≈ 16.3 µM) | COc1ccc(CC(=O)O/N=C(\N)Cc2ccc([N+](=O)[O-])cc2)cc1 |
| 0.9 (≈ 2.41 µM) | O=S(=O)(Nc1cccc(-c2nc3cccnc3s2)c1)c1cccs1 |
| 27.2 (≈ 119 µM) | O=C(C1CCCCC1)N1CCc2ccccc21 |
| 43.2 (≈ 146 µM) | CCOC(=O)C(NC(C)=O)C(O)c1ccc([N+](=O)[O-])cc1 (centres undefined) |
| > 26.6 | CC1=N/C(=C/c2ccco2)C(=O)O1 |
| 15.3 (≈ 63.9 µM) | N#Cc1cc(N2CCOCC2)nc2ccccc12 |
| > 50.2 | CCn1c(CNC(=O)C23CC4CC(CC(C4)C2)C3)nnc1SC |
| 37.9 (≈ 150 µM) | CCCCNC(=O)COC(=O)c1ccccc1F |
| > 29 | CC1CCN(c2ccc(C=O)o2)CC1 |

| solubility kinetic [µg/mL] | SMILES |
| --- | --- |
| 1.8 (≈ 5.32 µM) | CC(C)COc1ccc(C(=O)N2C(=O)c3ccc(N)cc3C2=O)cc1 |
| > 48.9 | O=C(O)/C(=C\c1ccco1)NC(=O)c1ccc(Br)o1 |
| 3.3 (≈ 11.4 µM) | CCn1c(/C=C/c2ccccc2C)nc2ccccc2c1=O |
| 5.7 (≈ 16.8 µM) | CCOc1ccc2oc(C(=O)Nc3ccc4c(c3)OCO4)c(C)c2c1 |
| > 42 | COc1nc(N(C)C)nc(N(C#N)CCOC(C)=O)n1 |
| 10.3 (≈ 48.5 µM) | c1ccc2nc(-c3nccs3)ccc2c1 |
| 33.6 (≈ 86 µM) | CC(C)COc1cccc(C(=O)N(C)CC(=O)Nc2cccc3ccccc23)c1 |
| > 55.6 | CC1(C)C(=O)Nc2ccccc2N1C(=O)COC(=O)Cc1ccccc1F |
| > 40.8 | O=C(Nc1ncccc1O)c1ccc2c(c1)OCCO2 |
| 61.8 | Br.C(CCCN1CCCCC1)CCN1CCCCC1 |
| 39.3 (≈ 115 µM) | COC(=O)COc1ccc(S(=O)(=O)N2CCCCCC2)cc1C |
| 20.1 (≈ 55.9 µM) | O=C(CC(c1ccccc1)c1ccccc1)NCCOCc1ccccc1 |
| 49.8 (≈ 142 µM) | CC1CCN(C(=O)COC(=O)CCC(=O)c2ccc(Cl)cc2)CC1 |
| > 46.6 | CC(C)C(NS(=O)(=O)c1ccccc1)C(=O)N1CCCC1 (centres undefined) |
| > 46.6 | CN(Cc1ccccc1)C(=O)CC(=O)N(C)Cc1ccccc1 |
| 39 (≈ 127 µM) | CC(CCc1ccccc1)NS(=O)(=O)c1ccccc1F (centres undefined) |
| 57 (≈ 139 µM) | O=C(Nc1ccc(CN2CCOCC2)cc1)c1cc(Br)ccc1Cl |
| > 67.3 | CCOc1ccc(C(c2c(O)nc(SC)[nH]c2=O)c2c(O)nc(SC)[nH]c2=O)cc1 |
| 0.7 (≈ 2.33 µM) | CC(C)n1c(NCc2ccc(Cl)cc2)nc2ccccc21 |
| > 45.4 | O=C(c1ccc(Cl)cc1)N1CCN(c2ncccn2)CC1 |
| 3.2 (≈ 10.1 µM) | CC(Cc1ccccc1)C(=O)Nc1ccc(Br)cc1 (centres undefined) |
| 8.5 (≈ 31.8 µM) | Cc1cccc(NC(=O)C(C)C(=O)c2ccccc2)c1 (centres undefined) |
| 1.8 (≈ 6.44 µM) | N#C/C(=C\c1c[nH]c2ccccc12)C(=O)NC1CCCC1 |

| solubility kinetic [µg/mL] | SMILES |
| --- | --- |
| > 56.8 | Cc1cccc(C)c1NC(=O)[C@@]1(CC(=O)O)CC(/C=C/c2ccccc2)=NO1 |
| 52.4 | CC(NCCN(C)C)C(=O)C12CC3CC(CC(C3)C1)C2.Cl (centres undefined) |
| 2.1 (≈ 5.83 µM) | Cc1ccc(S(N)(=O)=O)cc1NC(=O)/C=C/c1ccc2c(c1)OCO2 |
| 18.4 (≈ 71.9 µM) | CCNc1nc(Cl)nc(NC2CCCCC2)n1 |
| > 42.4 | Cc1ccc(CNc2ccc(N3CCOCC3)cc2)cc1 |
| < 0.6 | Cc1cc(-c2ccccc2)nc(-c2ccccc2)c1C |
| 33.2 (≈ 140 µM) | Cc1nccn1CCOc1ccccc1Cl |
| 50.4 (≈ 138 µM) | CNC(=O)/C(C#N)=C/c1c(N2CCCCCC2)nc2c(C)cccn2c1=O |
| 0.9 (≈ 2.69 µM) | O=C(Nc1nccs1)c1ccc(COc2ccccc2Cl)o1 |
| 35.6 (≈ 138 µM) | C=CCN1CCN(C(=O)CCc2ccccc2)CC1 |
| 30.9 (≈ 101 µM) | CC1CCCC(C)N1C(=O)COC(=O)Cc1ccc(F)cc1 (centres undefined) |
| > 51.1 | COc1cccc2[nH]c3c(N4CCC5(CC4)OCCO5)ncnc3c12 |
| 40.2 (≈ 133 µM) | Cn1c(=O)c2ccccc2n(CC(=O)NC2CCCC2)c1=O |
| 3.2 (≈ 10.1 µM) | COc1ccc(-c2cc(-c3ccccc3)c(C#N)c(=S)[nH]2)cc1 |
| > 44.3 | N#Cc1ccc(OCC(=O)OCC(=O)c2ccccc2)cc1 |
| 1.7 (≈ 4.84 µM) | O=C(/C=C/c1ccc([N+](=O)[O-])cc1)N1CCN(Cc2ccccc2)CC1 |
| > 39.7 | Cc1sc2nc(C)n(/N=C/N(C)C)c(=O)c2c1C |
| > 46.7 | Cc1ccccc1CS(=O)(=O)CC(O)CN1CCCC1=O (centres undefined) |
| 18.8 (≈ 60.4 µM) | O=[N+]([O-])c1cc(C(F)(F)F)ccc1NCCc1ccccn1 |
| 29.7 (≈ 87.7 µM) | CC(C)C(OC(=O)c1ccc(Cl)nc1)C(=O)NC1CCCCC1 (centres undefined) |
| > 46.1 | COc1ccc(C(=O)OCC(=O)NC2CCCC2)cc1OC |
| 26.4 (≈ 76.3 µM) | COc1ccc(C(=O)N2CCCc3ccccc32)cc1Br |
| > 48.4 | CC1=C(C)CC(C(=O)NC2CCN(C(C)C)CC2)C(C(=O)O)C1 (centres undefined) |
